From patent publication US20030187267A1, “Novel 1,2,3,4-tetrahydroisoquinoline, their preparation method and their use as fungicides” (priority 2000, published 2003)

System: Candida Albicans 44858
Experiment: Antifungal activity in mice infected intravenously with Candida Albicans 44858 (dead mice counted)
Format: in vivo
Settings: female mice, 106 CFU per mouse into the tail vein
Method: Antifungal activity of the product of Example 1 or product P.
Female mice were used weighing 18 to 22 g. A quantity of Candida Albicans 44858 at a rate of 10^6 CFU per mouse (CFU: colony forming unit) is administered into the vein of the tail. The mice are separated into 5 batches of 5 mice and they are treated as follows:
group 1: the mice are treated with product P 25 mg/kg by oral route
group 2: the mice are treated with product P by intraperitoneal route at a rate of 25 mg/kg
group 3: the mice are treated with fluconazole (25 mg/kg by oral route).
group 4: the mice are treated with fluconazole (25 mg/kg by intraperitoneal route).
group 5: the mice receive no antifungal treatment.
For a period of 22 days, the dead mice are counted.

CCC(C)n1ncn(-c2ccc(/C=C/CN3CCc4cc(OC[C@H]5CO[C@](Cn6ccnc6)(c6ccc(Cl)cc6Cl)O5)ccc4C3)cc2)c1=O (relative stereo) [Example 1, 2,4-dihydro-4-[4-[3-[6-[[(cis)-2-(2,4-dichlorophenyl)-2-(1H-imidazol-1-ylmethyl)-1,3-dioxolan-4-yl]-methoxy]-1,2,3,4-tetrahydro-2-isoquinolinyl]-1(E)-propenyl]-phenyl]-2-(1-methylpropyl)-3H-1,2,4-triazol-3-one.]
Antifungal activity (dead mice counted for a period of 22 days) (25 mg/kg by intraperitoneal route 1 hour after infection): excellent activity
Antifungal activity (dead mice counted for a period of 22 days) (25 mg/kg by oral route 1 hour after infection): excellent activity
